Laboratory results published in patent publication US9193719B2, “1,2,4-triazol-5-ones and analogs exhibiting anti-cancer and anti-proliferative activities” (Deciphera Pharmaceuticals, LLC, priority 2013, dated 2015).

Tests used:
[1] = target: T1, unphosphorylated c-KIT kinase (uKIT, Seq. ID no. 2) (Homo sapiens, UniProt P10721); assay: uKit kinase enzymatic assay (pyruvate kinase/lactate dehydrogenase coupled); type: biochemical; conditions: ATP 2000 μM, rate 3 to 4 h
T1 construct: uKit with N-terminal GST fusion used for screening
T1 sequence (P10721 with tags, fused parts or gaps): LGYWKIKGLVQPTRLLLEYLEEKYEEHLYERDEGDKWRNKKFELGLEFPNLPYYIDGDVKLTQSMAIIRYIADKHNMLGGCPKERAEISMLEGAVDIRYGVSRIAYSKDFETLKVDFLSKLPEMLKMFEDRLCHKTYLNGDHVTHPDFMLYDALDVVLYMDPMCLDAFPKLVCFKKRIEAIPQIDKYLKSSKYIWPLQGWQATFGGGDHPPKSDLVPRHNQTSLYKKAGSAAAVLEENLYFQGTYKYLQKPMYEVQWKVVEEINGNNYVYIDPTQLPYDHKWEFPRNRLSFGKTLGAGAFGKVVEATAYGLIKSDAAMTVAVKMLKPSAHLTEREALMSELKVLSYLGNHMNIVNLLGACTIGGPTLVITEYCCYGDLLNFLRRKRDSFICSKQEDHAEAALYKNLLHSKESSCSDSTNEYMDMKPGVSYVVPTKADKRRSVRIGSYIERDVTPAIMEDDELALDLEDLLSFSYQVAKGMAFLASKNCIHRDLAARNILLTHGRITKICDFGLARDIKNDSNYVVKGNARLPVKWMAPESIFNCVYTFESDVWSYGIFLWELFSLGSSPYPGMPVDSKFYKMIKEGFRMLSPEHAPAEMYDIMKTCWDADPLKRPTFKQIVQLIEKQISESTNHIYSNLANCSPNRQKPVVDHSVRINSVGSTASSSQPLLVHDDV
Outline: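 Coupled pyruvate kinase/lactate dehydrogenase readout of ADP, following NADH oxidation at A340 continuously for 4 h at 30 °C. Mix: 12 nM unphosphorylated KIT, 1 mg/mL polyE4Y, 2000 μM ATP, 10 mM MgCl2, 90 mM Tris pH 7.5, 0.2% octyl-glucoside, 1% DMSO. IC50 from % inhibition of rates at 3–4 h.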

[2] = target: T2, unphosphorylated PDGFRβ kinase (uPDGFRβ, Seq. ID No. 3) (Homo sapiens, UniProt P09619); assay: uPDGFRβ kinase enzymatic assay (pyruvate kinase/lactate dehydrogenase coupled); type: biochemical; conditions: ATP 500 μM, rate 1.5 to 2.5 h
T2 construct: purchased DeCode
T2 sequence (P09619 557-1106): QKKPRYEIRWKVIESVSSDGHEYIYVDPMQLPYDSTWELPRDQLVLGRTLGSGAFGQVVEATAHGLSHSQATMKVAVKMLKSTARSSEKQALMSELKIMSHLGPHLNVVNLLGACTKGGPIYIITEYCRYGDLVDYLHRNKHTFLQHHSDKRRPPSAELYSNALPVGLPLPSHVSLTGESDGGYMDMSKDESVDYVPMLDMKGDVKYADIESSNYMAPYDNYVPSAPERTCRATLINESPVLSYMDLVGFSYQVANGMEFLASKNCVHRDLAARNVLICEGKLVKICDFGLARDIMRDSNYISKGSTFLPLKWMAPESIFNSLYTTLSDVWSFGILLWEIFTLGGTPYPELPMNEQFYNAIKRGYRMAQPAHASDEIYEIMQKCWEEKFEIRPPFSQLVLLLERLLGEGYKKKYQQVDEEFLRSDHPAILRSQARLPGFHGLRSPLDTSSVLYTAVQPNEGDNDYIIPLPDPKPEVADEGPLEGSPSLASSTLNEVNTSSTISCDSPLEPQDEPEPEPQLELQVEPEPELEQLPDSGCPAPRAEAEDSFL
Outline: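 Unphosphorylated PDGFRβ (15.7 nM) with 500 μM ATP and poly E4Y (2.5 mg/mL) in Tris pH 7.5, 0.2% octyl-glucoside, 1% DMSO; ADP coupled via PK/LDH to NADH oxidation at A340, read continuously 4 h at 30 °C. Rates from 1.5–2.5 h window versus no-compound control gave IC50.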

M-NFS-60 cells = assay: M-NFS-60 cell proliferation assay (resazurin); type: cell-based; conditions: 67 h incubation
Outline: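 Cells kept in medium containing 20 ng/mL mouse recombinant M-CSF. Fluorescence was read at ex 540/em 600 nm, and IC50 was fitted from percent inhibition across a range of inhibitor concentrations.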

osteoclast precursors = assay: Osteoclast tartrate-resistant acid phosphatase assay; type: cell-based; conditions: RANKL and M-CSF, 7-14 days, tartrate-resistant acid phosphatase activity

Row | IC50 [1] [nM] | IC50 [2] [nM] | IC50 (osteoclast precursors) [nM] | Structure (SMILES) | IC50 (M-NFS-60 cells) [nM]
1 | > 1000 | > 1000 | 10 to 100 | Cc1nc(-n2cc(C(C)(C)C)[nH]c2=O)ccc1Oc1ccnc(-c2cnn(C)c2)c1 [Example 48, 4-(tert-butyl)-1-(6-methyl-5-((2-(1-methyl-1H-pyrazol-4-yl)pyridin-4-yl)oxy)pyridin-2-yl)-1H-imidazol-2(3H)-one] | 10 to 100
2 | > 1000 | > 1000 | 10 to 100 | Cc1nc(-n2nc(C(C)(C)C)[nH]c2=O)ccc1Oc1ccnc(-c2cnco2)c1 [Example 39, 3-(tert-butyl)-1-(6-methyl-5-((2-(oxazol-5-yl)pyridin-4-yl)oxy)pyridin-2-yl)-1H-1,2,4-triazol-5(4H)-one] | 10 to 100
3 | 100 to 1000 | > 1000 | 100 to 1000 | Cc1nc(-n2nc(C3CCOCC3)[nH]c2=O)ccc1Oc1ccnc(-c2cnn(C)c2)c1 [Example 20, 1-(6-methyl-5-((2-(1-methyl-1H-pyrazol-4-yl)pyridin-4-yl)oxy)pyridin-2-yl)-3-(tetrahydro-2H-pyran-4-yl)-1H-1,2,4-triazol-5(4H)-one] | 100 to 1000
4 | 100 to 1000 | > 1000 | 10 to 100 | Cc1cc(-c2cc(Oc3ccc(-n4nc(C(C)(C)C)[nH]c4=O)nc3C)ccn2)ccn1 [Example 9, 3-(tert-butyl)-1-(6-methyl-5-((2′-methyl-[2,4′-bipyridin]-4-yl)oxy)pyridin-2-yl)-1H-1,2,4-triazol-5(4H)-one] | 10 to 100
5 | 10 to 100 | 10 to 100 | 10 to 100 | Cn1cc(-c2cc(Oc3ccc(-n4nc(Cc5ccc(F)cc5)[nH]c4=O)nc3)ccn2)cn1 [Example 3, 3-(4-fluorobenzyl)-1-(5-((2-(1-methyl-1H-pyrazol-4-yl)pyridin-4-yl)oxy)pyridin-2-yl)-1H-1,2,4-triazol-5(4H)-one] | 10 to 100
6 | 10 to 100 | > 1000 | 10 to 100 | Cc1nc(-n2nc(CC(C)C)[nH]c2=O)ccc1Oc1ccnc(-c2cnn(C)c2)c1 [Example 22, 3-isobutyl-1-(6-methyl-5-((2-(1-methyl-1H-pyrazol-4-yl)pyridin-4-yl)oxy)pyridin-2-yl)-1H-1,2,4-triazol-5(4H)-one] | ≤ 10
7 | 10 to 100 | 100 to 1000 | 10 to 100 | Cc1cc(-n2nc(C(C)(C)C)[nH]c2=O)ncc1Oc1ccnc(-c2cnn(C)c2)c1 [Example 31, 3-(tert-butyl)-1-(4-methyl-5-((2-(1-methyl-1H-pyrazol-4-yl)pyridin-4-yl)oxy)pyridin-2-yl)-1H-1,2,4-triazol-5(4H)-one] | 10 to 100
8 | 100 to 1000 | > 1000 | 10 to 100 | Cc1nc(-n2nc(C(C)(C)C)[nH]c2=O)ccc1Oc1ccnc(-c2cnn(C)c2)c1 [Example 7, 3-(tert-butyl)-1-(6-methyl-5-((2-(1-methyl-1H-pyrazol-4-yl)pyridin-4-yl)oxy)pyridin-2-yl)-1H-1,2,4-triazol-5(4H)-one] | 10 to 100
9 | > 1000 | > 1000 | 10 to 100 | Cc1nc(-n2nc(C(C)(C)C)[nH]c2=O)ccc1Oc1cc(-c2cnn(C)c2)ncn1 [Example 47, 3-(tert-butyl)-1-(6-methyl-5-((6-(1-methyl-1H-pyrazol-4-yl)pyrimidin-4-yl)oxy)pyridin-2-yl)-1H-1,2,4-triazol-5(4H)-one] | 100 to 1000
10 | 10 to 100 | > 1000 | 10 to 100 | Cn1cc(-c2cc(Oc3ccc(-n4nc(C(C)(C)C)[nH]c4=O)nc3)ccn2)cn1 [Example 4, 3-(tert-butyl)-1-(5-((2-(1-methyl-1H-pyrazol-4-yl)pyridin-4-yl)oxy)pyridin-2-yl)-1H-1,2,4-triazol-5(4H)-one] | 10 to 100
11 | 100 to 1000 | > 1000 | 10 to 100 | COCC(C)(C)c1nn(-c2ccc(Oc3ccnc(-c4cnn(C)c4)c3)c(C)n2)c(=O)[nH]1 [Example 46, 3-(1-methoxy-2-methylpropan-2-yl)-1-(6-methyl-5-((2-(1-methyl-1H-pyrazol-4-yl)pyridin-4-yl)oxy)pyridin-2-yl)-1H-1,2,4-triazol-5(4H)-one] | 100 to 1000
12 | 100 to 1000 | 100 to 1000 | 10 to 100 | Cc1nc(-n2nc(Cc3ccc(F)cc3)[nH]c2=O)ccc1Oc1ccnc(-c2cnn(C)c2)c1 [Example 1, 3-(4-fluorobenzyl)-1-(6-methyl-5-((2-(1-methyl-1H-pyrazol-4-yl)pyridin-4-yl)oxy)pyridin-2-yl)-1H-1,2,4-triazol-5(4H)-one] | 10 to 100
